From ChEMBL document CHEMBL1147400, “Novel antimitotic dibenzocyclo-octadiene lignan constituents of the stem bark of Steganotaenia araliacea” (1993) come the findings set out here.

≈ marks a conversion by molar mass, not a printed value. Some results are limits rather than exact numbers.

System in the first experiment: not listed separately
Description: Antimitotic activity against rat ASK cells assessed as reversal of astrocyte morphology at 0.032 ug/ml.
Conditions: not given
It counts as functional.
For the compound `COc1cc2c(c(OC)c1OC)-c1cc3c(cc1[C@@H](OC(C)=O)C1COC(=O)[C@H]1C2)OCO3` (some centres not stated) [STEGANACIN], the Activity is on record as 0%.

With `C/C=C(/C)C(=O)O[C@H]1c2cc3c(cc2-c2c(cc(OC)c(OC)c2OC)C[C@H]2C(=O)OC[C@@H]21)OCO3` [STEGANANGIN], the Activity amounted to 0%.

For a further experiment, the system named is SK-MEL-2. Put plainly: Cytotoxicity against human SK-MEL-2 cells. It counts as functional. Conditions: read-out: ED50 (the source's name).
Regarding `COc1cc2c(c(OC)c1OC)-c1cc3c(cc1[C@@H](OC(C)=O)C1COC(=O)[C@H]1C2)OCO3` (some centres not stated) [STEGANACIN], the EC50 is over 20 µg/mL.

As for `C/C=C(/C)C(=O)O[C@H]1c2cc3c(cc2-c2c(cc(OC)c(OC)c2OC)C[C@H]2C(=O)OC[C@@H]21)OCO3` [STEGANANGIN], the EC50 is 0.7 µg/mL (≈ 1.41 µM).

System in the next experiment: not listed separately
Put plainly: Antimitotic activity against rat ASK cells assessed as reversal of astrocyte morphology at 0.8 ug/ml. The experiment is classed as functional.
Conditions: not given
Regarding `COc1cc2c(c(OC)c1OC)-c1cc3c(cc1[C@@H](OC(C)=O)C1COC(=O)[C@H]1C2)OCO3` (some centres not stated) [STEGANACIN], the Activity amounted to 100%.

Consider `C/C=C(/C)C(=O)O[C@H]1c2cc3c(cc2-c2c(cc(OC)c(OC)c2OC)C[C@H]2C(=O)OC[C@@H]21)OCO3` [STEGANANGIN], for which the Activity is reported as 100%.

System in another experiment: not listed separately
Put plainly: Cytotoxicity against human BC1 cells. The experiment is classed as functional. Conditions: read-out: ED50 (the source's name).
For the compound `COc1cc2c(c(OC)c1OC)-c1cc3c(cc1[C@@H](OC(C)=O)C1COC(=O)[C@H]1C2)OCO3` (some centres not stated) [STEGANACIN], the EC50 is 0.6 µg/mL (≈ 1.31 µM).

Regarding `C/C=C(/C)C(=O)O[C@H]1c2cc3c(cc2-c2c(cc(OC)c(OC)c2OC)C[C@H]2C(=O)OC[C@@H]21)OCO3` [STEGANANGIN], the EC50 came to 0.7 µg/mL (≈ 1.41 µM).

System in a further experiment: not listed separately
Description: Antimitotic activity against rat ASK cells assessed as reversal of astrocyte morphology at 4 ug/ml. It counts as functional.
Conditions: not given
For the compound `COc1cc2c(c(OC)c1OC)-c1cc3c(cc1[C@@H](OC(C)=O)C1COC(=O)[C@H]1C2)OCO3` (some centres not stated) [STEGANACIN], the Activity is listed as 100%.

For the compound `C/C=C(/C)C(=O)O[C@H]1c2cc3c(cc2-c2c(cc(OC)c(OC)c2OC)C[C@H]2C(=O)OC[C@@H]21)OCO3` [STEGANANGIN], the Activity turned out to be 100%.

The species named for the next experiment is Bos taurus. Description: Inhibition of calf thymus tubulin polymerization by turbidimetric analysis.
Conditions: not given
As to `COc1cc2c(c(OC)c1OC)-c1cc3c(cc1[C@@H](OC(C)=O)C1COC(=O)[C@H]1C2)OCO3` (some centres not stated) [STEGANACIN], the Activity entry was “Dose-dependent effect”.

The subject of the next experiment is KB. Put plainly: Cytotoxicity against human KB cells. The experiment is classed as functional. The conditions noted are these: read-out: ED50 (the source's name).
Regarding `COc1cc2c(c(OC)c1OC)-c1cc3c(cc1[C@@H](OC(C)=O)C1COC(=O)[C@H]1C2)OCO3` (some centres not stated) [STEGANACIN], the EC50 was 0.1 µg/mL (≈ 0.219 µM).

Consider `C/C=C(/C)C(=O)O[C@H]1c2cc3c(cc2-c2c(cc(OC)c(OC)c2OC)C[C@H]2C(=O)OC[C@@H]21)OCO3` [STEGANANGIN], for which the EC50 amounted to 0.4 µg/mL (≈ 0.806 µM).

The subject of the next experiment is Lu1. Put plainly: Cytotoxicity against human Lu1 cells. It counts as functional. Conditions: read-out: ED50 (the source's name).
With `COc1cc2c(c(OC)c1OC)-c1cc3c(cc1[C@@H](OC(C)=O)C1COC(=O)[C@H]1C2)OCO3` (some centres not stated) [STEGANACIN], the EC50 amounted to 0.4 µg/mL (≈ 0.876 µM).

Consider `C/C=C(/C)C(=O)O[C@H]1c2cc3c(cc2-c2c(cc(OC)c(OC)c2OC)C[C@H]2C(=O)OC[C@@H]21)OCO3` [STEGANANGIN], for which the EC50 turned out to be 0.4 µg/mL (≈ 0.806 µM).

System in a further experiment: not listed separately
Put plainly: Antimitotic activity against rat ASK cells assessed as reversal of astrocyte morphology at 0.0064 ug/ml. It counts as functional.
Conditions: not given
With `C/C=C(/C)C(=O)O[C@H]1c2cc3c(cc2-c2c(cc(OC)c(OC)c2OC)C[C@H]2C(=O)OC[C@@H]21)OCO3` [STEGANANGIN], the Activity is 0%.

For the next experiment, the species on record is Bos taurus. Put plainly: Inhibition of calf brain tubulin polymerization by turbidimetric analysis.
Conditions: not given
For `COc1cc2c(c(OC)c1OC)-c1cc3c(cc1[C@@H](OC(C)=O)C1COC(=O)[C@H]1C2)OCO3` (some centres not stated) [STEGANACIN], the ED50 came to 1.7 µg/mL (≈ 3.72 µM).

Turning to `C/C=C(/C)C(=O)O[C@H]1c2cc3c(cc2-c2c(cc(OC)c(OC)c2OC)C[C@H]2C(=O)OC[C@@H]21)OCO3` [STEGANANGIN], the ED50 amounted to 38.1 µg/mL (≈ 76.7 µM).

System in the next experiment: not listed separately
Put plainly: Antimitotic activity against rat ASK cells assessed as reversal of astrocyte morphology at 100 ug/ml. It counts as functional.
Conditions: not given
Take `COc1cc2c(c(OC)c1OC)-c1cc3c(cc1[C@@H](OC(C)=O)C1COC(=O)[C@H]1C2)OCO3` (some centres not stated) [STEGANACIN]: the Activity is 100%.

`C/C=C(/C)C(=O)O[C@H]1c2cc3c(cc2-c2c(cc(OC)c(OC)c2OC)C[C@H]2C(=O)OC[C@@H]21)OCO3` [STEGANANGIN]: the Activity is recorded as 100%.

System in a further experiment: not listed separately
Put plainly: Cytotoxicity against multidrug-resistant human KBV1 cells. The experiment is classed as functional. The conditions noted are these: KB-V1, read-out: ED50 (the source's name).
On to `COc1cc2c(c(OC)c1OC)-c1cc3c(cc1[C@@H](OC(C)=O)C1COC(=O)[C@H]1C2)OCO3` (some centres not stated) [STEGANACIN], for which the EC50 stood at 0.2 µg/mL (≈ 0.438 µM).

In the case of `C/C=C(/C)C(=O)O[C@H]1c2cc3c(cc2-c2c(cc(OC)c(OC)c2OC)C[C@H]2C(=O)OC[C@@H]21)OCO3` [STEGANANGIN], the EC50 amounted to 0.7 µg/mL (≈ 1.41 µM).

A further experiment deals with LNCaP. Put plainly: Cytotoxicity against human LNCAP cells. The experiment is classed as functional. Conditions: read-out: ED50 (the source's name).
Consider `C/C=C(/C)C(=O)O[C@H]1c2cc3c(cc2-c2c(cc(OC)c(OC)c2OC)C[C@H]2C(=O)OC[C@@H]21)OCO3` [STEGANANGIN], for which the EC50 stood at 0.9 µg/mL (≈ 1.81 µM).

A further experiment deals with ZR-75-1. Put plainly: Cytotoxicity against human ZR-75-1 cells. The experiment is classed as functional. The conditions noted are these: read-out: ED50 (the source's name).
Regarding `COc1cc2c(c(OC)c1OC)-c1cc3c(cc1[C@@H](OC(C)=O)C1COC(=O)[C@H]1C2)OCO3` (some centres not stated) [STEGANACIN], the EC50 was 5 µg/mL (≈ 11 µM).

Consider `C/C=C(/C)C(=O)O[C@H]1c2cc3c(cc2-c2c(cc(OC)c(OC)c2OC)C[C@H]2C(=O)OC[C@@H]21)OCO3` [STEGANANGIN], for which the EC50 is 1 µg/mL (≈ 2.01 µM).

Another experiment deals with Col2. Put plainly: Cytotoxicity against human Col2 cells. It counts as functional. The conditions noted are these: read-out: ED50 (the source's name).
Turning to `COc1cc2c(c(OC)c1OC)-c1cc3c(cc1[C@@H](OC(C)=O)C1COC(=O)[C@H]1C2)OCO3` (some centres not stated) [STEGANACIN], the EC50 was 0.4 µg/mL (≈ 0.876 µM).

As for `C/C=C(/C)C(=O)O[C@H]1c2cc3c(cc2-c2c(cc(OC)c(OC)c2OC)C[C@H]2C(=O)OC[C@@H]21)OCO3` [STEGANANGIN], the EC50 was determined as 0.6 µg/mL (≈ 1.21 µM).

The next experiment deals with HT. Put plainly: Cytotoxicity against human HT cells. It counts as functional. The conditions noted are these: read-out: ED50 (the source's name).
For the compound `COc1cc2c(c(OC)c1OC)-c1cc3c(cc1[C@@H](OC(C)=O)C1COC(=O)[C@H]1C2)OCO3` (some centres not stated) [STEGANACIN], the EC50 was 0.7 µg/mL (≈ 1.53 µM).

With `C/C=C(/C)C(=O)O[C@H]1c2cc3c(cc2-c2c(cc(OC)c(OC)c2OC)C[C@H]2C(=O)OC[C@@H]21)OCO3` [STEGANANGIN], the EC50 came out at 0.6 µg/mL (≈ 1.21 µM).

System in a further experiment: not listed separately
Description: Antimitotic activity against rat ASK cells assessed as reversal of astrocyte morphology at 0.16 ug/ml. The experiment is classed as functional.
Conditions: not given
With `COc1cc2c(c(OC)c1OC)-c1cc3c(cc1[C@@H](OC(C)=O)C1COC(=O)[C@H]1C2)OCO3` (some centres not stated) [STEGANACIN], the Activity is reported as 100%.

Take `C/C=C(/C)C(=O)O[C@H]1c2cc3c(cc2-c2c(cc(OC)c(OC)c2OC)C[C@H]2C(=O)OC[C@@H]21)OCO3` [STEGANANGIN]: the Activity amounted to 50%.

The next experiment deals with A-431. Put plainly: Cytotoxicity against human A431 cells. It counts as functional. The conditions noted are these: read-out: ED50 (the source's name).
As for `COc1cc2c(c(OC)c1OC)-c1cc3c(cc1[C@@H](OC(C)=O)C1COC(=O)[C@H]1C2)OCO3` (some centres not stated) [STEGANACIN], the EC50 came to 0.2 µg/mL (≈ 0.438 µM).

On to `C/C=C(/C)C(=O)O[C@H]1c2cc3c(cc2-c2c(cc(OC)c(OC)c2OC)C[C@H]2C(=O)OC[C@@H]21)OCO3` [STEGANANGIN], for which the EC50 is over 20 µg/mL.

System in a further experiment: not listed separately
Put plainly: Cytotoxicity against human U373 cells. The experiment is classed as functional, U-373MG ATCC. The conditions noted are these: U373 MG, read-out: ED50 (the source's name).
Consider `COc1cc2c(c(OC)c1OC)-c1cc3c(cc1[C@@H](OC(C)=O)C1COC(=O)[C@H]1C2)OCO3` (some centres not stated) [STEGANACIN], for which the EC50 came to 0.1 µg/mL (≈ 0.219 µM).

Turning to `C/C=C(/C)C(=O)O[C@H]1c2cc3c(cc2-c2c(cc(OC)c(OC)c2OC)C[C@H]2C(=O)OC[C@@H]21)OCO3` [STEGANANGIN], the EC50 is over 20 µg/mL.

System in a further experiment: not listed separately
Description: Antimitotic activity against rat ASK cells assessed as reversal of astrocyte morphology at 20 ug/ml. It counts as functional.
Conditions: not given
In the case of `COc1cc2c(c(OC)c1OC)-c1cc3c(cc1[C@@H](OC(C)=O)C1COC(=O)[C@H]1C2)OCO3` (some centres not stated) [STEGANACIN], the Activity was 100%.

In the case of `C/C=C(/C)C(=O)O[C@H]1c2cc3c(cc2-c2c(cc(OC)c(OC)c2OC)C[C@H]2C(=O)OC[C@@H]21)OCO3` [STEGANANGIN], the Activity came out at 100%.
